Laboratory results reported in patent publication US5140023A, “Azatetracycle compounds” (G. D. Searle & Co., priority 1991, dated 1992).
Counter-ions that a name gives are not always drawn.

Key:
[1] = target: T1, 5-HT3 (Canis lupus familiaris, UniProt Q1HHV2); assay: Antiemetic activity against cisplatin-induced emesis in beagle dogs; format: in vivo; conditions: for ED50: dog, iv, i.v. 30 min before and 2 h after cisplatin 3 mg/kg i.v., emetic episodes counted 5 h, read-out: ID50 (50% inhibition of the number of emetic episodes)
T1 construct: from tissue; host or cells: living beagle dogs (in vivo, i.v. dosing); endogenous receptor
T1 sequence (Q1HHV2 24-483): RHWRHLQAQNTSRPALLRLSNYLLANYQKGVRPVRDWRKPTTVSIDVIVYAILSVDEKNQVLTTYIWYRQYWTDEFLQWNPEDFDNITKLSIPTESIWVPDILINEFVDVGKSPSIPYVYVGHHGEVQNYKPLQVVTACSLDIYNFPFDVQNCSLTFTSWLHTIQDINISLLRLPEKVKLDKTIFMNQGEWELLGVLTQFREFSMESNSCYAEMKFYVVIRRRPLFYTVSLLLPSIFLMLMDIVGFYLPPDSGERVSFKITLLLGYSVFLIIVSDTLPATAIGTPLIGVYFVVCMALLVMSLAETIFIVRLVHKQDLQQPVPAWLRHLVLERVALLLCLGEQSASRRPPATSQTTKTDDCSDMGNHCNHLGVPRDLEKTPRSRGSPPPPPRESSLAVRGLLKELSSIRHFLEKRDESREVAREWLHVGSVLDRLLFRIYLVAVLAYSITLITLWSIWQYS
Method: 5-HT3 antagonism can be determined in a model of emesis induced by the chemotherapeutic agent cisplatin as described herein.
Antiemetic activity of test compound against cisplatin was determined in beagle dogs. Dogs are pretreated I.V. with a test compound dissolved in DMSO thirty minutes before administration of cisplatin 3 mg/kg.i.v. with a second dose of compounds given i.v. two hours after cisplatin administration. Emetic episodes are counted for 5 hours following cisplatin administration. The latency for first emesis and the number of emetic episodes for test compounds are compared with results for control treatment (vehicle).
Per cent inhibition of emesis for each animal is determined by the following formula: [formula] A mean inhibitory dose (ID50) which results in 50% inhibition of the number of emetic episodes is determined.

[2] = system: gastric emptying; assay: Rat gastric emptying of a test meal (prokinetic activity); format: in vivo, rat (male Charles River, Crl: COBS, CD (SD) BR); conditions: 30 min before test meal, rats sacrificed 60 min after meal
From the text: Alternatively, the compounds of formula I wherein p is 1, A is NH and B is NH or 0 can be prepared by treating ArNH2 (37) with compounds of formula 38 (an isocyanate or activated carbonyl derivative of azatetracycles 11, 26, 32 or 35). L1 is as described above. […] Prokinetic activity of a compound can be determined by measuring the enhancement of gastric emptying of a meal in a rat model to which the compound has been administered. This method for determining prokinetic activity of a compound has been described by Droppleman, et al, J. Pharmacol. and Methods 4: 227-230 (1980).
A test meal for measuring gastric emptying in rats was prepared. Ten grams of methylcellulose (2% solution=15 centipoises; Aldrich Chemical Company, Milwaukee, Wis.) was added to 200ml of cold water and mixed at 20,000 rpm in a Waring blender to insure dispersion and hydration of the methylcellulose. In addition, two beef bouillon cubes (Wyler's, Columbus, Ohio) dissolved in 100ml of warm water was added to the mixture, followed by 16g of casein (Hammersten, Schwartz/Mann, Orangeburg, N.Y.), 8g of powdered confectioners sugar and 8g of cornstarch. The ingredients were mixed for two minutes at 20,000 rpm and the resultant test meal was refrigerated for 48 hours to allow trapped air to escape. Male Charles River Rats, Crl: COBS, CD (SD) BR Strain, 180-200g body weight, were used in groups of six animals. The animals were food deprived for 24 hours prior to the experiment with access to water ad libitum. The compounds to be evaluated were prepared in a 0.5% aqueous methylcellulose solution. If insoluble, the mixture was homogenized for two minutes at 5500 rpm using a Try R-Stir-R. The compounds were injected intraperitoneally at a volume of 5 ml/kg, 30 minutes before the test meal, (3.0ml/rat i.g.). Control animals received only the vehicle. Sixty minutes after the test meal, the rats were sacrificed by cervical dislocation. The stomachs were removed intact and weighed. The stomachs were kept opened, gently rinsed with tap water, blotted dry with paper towelling, and the empty stomach weighed. The difference between the weight of the full and empty stomach is indicative of the amount of meal remaining in the stomach. The amount of meal remaining in the stomach was subtracted from the weight of 3ml of the test meal to determine the amount of food emptied from the stomach during the test. Weight of the test meal was determined by weighing three samples (3ml) at the beginning and three samples at the end of each experiment and calculating the mean. The mean and standard error of the amount of meal emptied were calculated.
The results of following the protocol and comparing representative compounds herein to known prokinetic agents, metoclopramide and cisapride, are shown in Table III.

Row | SMILES | ED50 [1] [mg/kg] | % increase in gastric emptying ([2]; 1.0 mg/kg ip) [%] | % increase in gastric emptying ([2]; 3.0 mg/kg ip) [%] | % increase in gastric emptying ([2]; 10.0 mg/kg ip) [%] | other results
1 | COc1cc(N)c(Cl)cc1C(=O)N[C@H]1[C@H]2C[C@@H]3CN(C2)C[C@@H]31 (relative stereo) [Example 12, 2-methoxy-4-amino-5-chloro-N-(hexahydro-1H-2,5B-methano-3aα, 6aα-cyclopenta[c]pyrrol-4α-yl)benzamidehydrochloride] | 0.03 | 45.3 |  |  | % increase in gastric emptying ([2]; 0.001 mg/kg ip): -5.8%; % increase in gastric emptying ([2]; 0.01 mg/kg ip): 2.0%; % increase in gastric emptying ([2]; 0.03 mg/kg ip): 16.4%; % increase in gastric emptying ([2]; 0.1 mg/kg ip): 31.3%; % increase in gastric emptying ([2]; 0.3 mg/kg ip): 32.1%
2 | Cn1nc(C(=O)N[C@H]2[C@H]3C[C@@H]4CN(C3)C[C@@H]42)c2ccccc21 (relative stereo) [Example 27, (±)-N-(hexahydro-1H-2,5β-methano-3aα,6aα-cyclopenta[c]pyrrol-4α-yl)-1-methyl-1H-indazole-3-carboxamide, hydrochloride] | 0.1 |  |  |  | % inhibition (of emesis) ([1]; cisplatin 3 mg/kg i.v., printed in parentheses under 0.10 mg/kg iv): 72%
3 | COc1cc(N)c(Cl)cc1C(=O)NC1CCN2CCCC1C2 (centres unmarked) [BRL-24924] | 0.1 | 29.8 | 34.2 | 35.2 | 
4 | COc1cc(N)c(Cl)cc1C(=O)NC1CCN(CCCOc2ccc(F)cc2)CC1OC (centres unmarked) [Cisapride, cisapride] | 0.6 | 9.8 | 15.4 | 25.0 | 
5 | CN1[C@@H]2CC[C@H]1C[C@@H](OC(=O)c1c[nH]c3ccccc13)C2 [ICS 205-930] | 0.01 |  |  |  | 
6 | CCN(CC)CCNC(=O)c1cc(Cl)c(N)cc1OC [METOCLOPRAMIDE, metoclopramide] |  | 2.6 | 11.2 | 34.1 | 
7 | COc1cc(N)c(Cl)cc1C(=O)NC1CN2CCC1CC2 (centres unmarked) [ZACOPRIDE] |  | 11.8 | 9.3 | 18.5 | % increase in gastric emptying ([2]; 0.3 mg/kg ip): 1.4%; % increase in gastric emptying ([2]; 30.0 mg/kg ip): 6.3%
